The first assay deals with HCV (Ib) RNA replication. Briefly: Cell-based luciferase reporter HCV (1b) RNA replication assay (replicon cell lines Huh-7 5.2 and ET). Details: species or system Hepatitis C virus. As to conditions: HCV 1b genotype replicon, luciferase readout, 4 days incubation; read-out: EC50_1b. An outline of the steps: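 Huh-7-derived 5.2 or ET replicon cells carrying a firefly luciferase reporter were seeded at ~3000 cells/well in medium without G418 or phenol red. Compound was added after 3-4 h, followed by 4 days at 37 °C. Luciferase readout was used, with IC50 fitted by nonlinear regression from eleven concentrations in duplicate.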
In the case of `COC(=O)NC(C(=O)N1CCCC1c1nc2cc(-c3ccc(-c4ccc5nc(C6CCCN6C(=O)C(NC(=O)OC)C(C)(C)C)[nH]c5c4)cc3)ccc2[nH]1)C(C)(C)C` (centres unmarked) [Compound 193], the EC50 lay in the range of 5 to 5000 nM.

The assay is the same for the next values; noted with them: Hepatitis C virus, Huh-7, 96 h, HCV 1b genotype replicon, luciferase readout, 4 days incubation; read-out: EC50_1b.
For the molecule `COC(=O)N[C@H](C(=O)N1CCC[C@H]1c1nc2cc(N3CCCN(c4ccc5nc([C@@H]6CCCN6C(=O)[C@@H](NC(=O)OC)C(C)C)[nH]c5c4)CC3)ccc2[nH]1)C(C)C` [Compound 328], the EC50 is at most 5 nM. Same read-out and setting: the value for `CCC[C@H](NC(C)=O)C(=O)N1CCC[C@H]1c1nc2cc(C#Cc3ccc4[nH]c([C@@H]5CCCN5C(=O)[C@H](CCC)NC(C)=O)nc4c3)ccc2[nH]1` [Compound 109] was 5 to 5000 nM; that for `O=C(CC1CC1)N1CCC[C@H]1c1nc2cc(C#Cc3ccc4[nH]c([C@@H]5CCCN5C(=O)CC5CC5)nc4c3)ccc2[nH]1` [Compound 108] was 5 to 5000 nM. Consider `COC(=O)N[C@H](C(=O)N1CCC[C@H]1c1nc2cc(-c3cc(C)c(-c4ccc5[nH]c([C@@H]6CCCN6C(=O)[C@@H](NC(=O)OC)C(C)C)nc5c4)s3)ccc2[nH]1)C(C)C` [Compound 155], for which the EC50 was at most 5 nM. Still for that read-out and setting: the value for `COC(=O)N[C@H](C(=O)N1[C@@H](C)CC[C@H]1c1nc2cc(-c3ccc(-c4ccc5[nH]c([C@@H]6CC[C@H](C)N6C(=O)[C@@H](NC(=O)OC)C(C)C)nc5c4)c4c3OCO4)ccc2[nH]1)C(C)C` [Compound 318] was at most 5 nM; that for `COC(=O)N[C@H](C(=O)N1CCC[C@H]1c1nc2cc(C#Cc3ccc4[nH]c([C@@H]5CCCN5C(=O)[C@@H](NC(=O)OC)C5CCCCC5)nc4c3)ccc2[nH]1)C1CCCCC1` [Compound 95] was at most 5 nM. `COC(=O)N[C@H](C(=O)N1CCC[C@H]1c1nc2cc(-c3ccc(-c4ccc5[nH]c([C@@H]6CCCN6C(=O)[C@@H](Nc6ncccn6)C(C)C)nc5c4)cc3)ccc2[nH]1)C(C)C` [Compound 241]: the EC50 is at most 5 nM. In the case of `CC(C)(C)CCN1CCC[C@H]1c1nc2cc(C#Cc3ccc4[nH]c([C@@H]5CCCN5CCC(C)(C)C)nc4c3)ccc2[nH]1` [Compound 134], the EC50 fell in the range of 5 to 5000 nM. On the same count and under the same terms, the value for `CC[C@H]1C[C@@H](c2nc3cc(-c4ccc(-c5ccc6[nH]c([C@@H]7C[C@H](CC)CN7C(=O)[C@@H](NC(C)OC)C(C)C)nc6c5)cc4)ccc3[nH]2)N(C(=O)[C@@H](NC(=O)OC)C(C)C)C1` (some centres unmarked) [Compound 302] was at most 5 nM; that for `COC(=O)N[C@H](C(=O)N1CCC[C@H]1c1nc2cc(C)c(-c3ccc(-c4cc5[nH]c([C@@H]6CCCN6C(=O)[C@@H](NC(=O)OC)C(C)C)nc5cc4C)cc3)cc2[nH]1)C(C)C` [Compound 144] was at most 5 nM. For the molecule `COC(=O)N(C)[C@H](C(=O)N1C[C@@H](C)C[C@H]1c1nc2cc(-c3ccc(-c4ccc5[nH]c([C@@H]6C[C@H](C)CN6C(=O)[C@H](C(C)C)N(C)C(=O)OC)nc5c4)c(C)c3)ccc2[nH]1)C(C)C` [Compound 266], the EC50 is at most 5 nM.

With `COC(=O)N[C@H](C(=O)N1CCC[C@H]1c1nc2ccc(N3CCN(c4ccc5nc([C@@H]6CCCN6C(=O)[C@@H](NC(=O)OC)C(C)C)[nH]c5c4)CC3)cc2[nH]1)C(C)C` [Compound 229], the EC50 was at most 5 nM. The same measure, in the same setting: the value for `COC(=O)N[C@H](C(=O)N1CCC[C@H]1c1nc2cc(C#Cc3ccc4nc([C@@H]5CCCN5C(=O)[C@H](C(C)C)N(C)C(=O)OC)[nH]c4c3)ccc2[nH]1)C(C)C` [Compound 117] was at most 5 nM. With `COC(=O)N[C@H](C(=O)N1C[C@@H](C)C[C@H]1c1nc2cc(-c3cnc(-c4ccc5[nH]c([C@@H]6C[C@H](C)CN6C(=O)[C@@H](NC(=O)OC)C(C)C)nc5c4)cn3)ccc2[nH]1)C(C)C` [Compound 307], the EC50 was at most 5 nM. Turning to `C[C@H]1CN(c2ccc3nc([C@@H]4CCCN4C(=O)OC(C)(C)C)[nH]c3c2)CCN1c1ccc2nc([C@@H]3CCCN3C(=O)OC(C)(C)C)[nH]c2c1` [Compound 275], the EC50 was in the range of 5 to 5000 nM. Consider `COC(=O)N[C@H](C(=O)N1C[C@@H](C)C[C@H]1c1nc2cc(-c3cc(C)c(-c4ccc5[nH]c([C@@H]6C[C@H](C)CN6C(=O)[C@H](C(C)C)N(C)C(=O)OC)nc5c4)cc3C)ccc2[nH]1)C(C)C` [Compound 276], for which the EC50 was at most 5 nM. For `COC(=O)N[C@H](C(=O)N1CCC[C@H]1c1nc2cc(-c3cc4sc(-c5ccc6nc([C@@H]7CCCN7C(=O)[C@@H](NC(=O)OC)C(C)C)[nH]c6c5)cc4s3)ccc2[nH]1)C(C)C` [Compound 167], the EC50 was at most 5 nM. As for `COC(=O)N[C@H](C(=O)N1C[C@@H](C)C[C@H]1c1nc2cc(-c3ccc(-c4ccc5[nH]c([C@@H]6C[C@H](C)CN6C(=O)[C@@H](NC(=O)OC)C(C)C)nc5c4)c(C)c3)ccc2[nH]1)C(C)C` [Compound 237], the EC50 was at most 5 nM. With `COC(=O)N[C@H](C(=O)N1CCC[C@H]1c1nc2cc(-c3ccc(-c4ccc5c(c4)nc([C@@H]4CCCN4C(=O)[C@@H](NC(=O)OC)C(C)C)n5C)cc3)ccc2[nH]1)C(C)C` [Compound 232], the EC50 is at most 5 nM. Regarding `COC(=O)N[C@H](C(=O)N1CCC[C@@]1(C)c1nc2cc(-c3ccc(-c4ccc5[nH]c([C@]6(C)CCCN6C(=O)[C@@H](NC(=O)OC)C(C)C)nc5c4)cc3)ccc2[nH]1)C(C)C` [Compound 249], the EC50 is at most 5 nM. On to `[2H]C1([2H])Oc2c(-c3ccc4[nH]c([C@@H]5CCCN5C(=O)[C@@H](NC(=O)OC)C(C)C)nc4c3)ccc(-c3ccc4[nH]c([C@@H]5CCCN5C(=O)[C@@H](NC(=O)OC)C(C)C)nc4c3)c2O1` [Compound 194], for which the EC50 was at most 5 nM. On the same count and under the same terms, the value for `COC(=O)N[C@H](C(=O)N1[C@@H](C)CC[C@H]1c1nc2cc(-c3cc4sc(-c5ccc6[nH]c([C@@H]7CC[C@H](C)N7C(=O)[C@@H](NC(=O)OC)C(C)C)nc6c5)cc4s3)ccc2[nH]1)C(C)C` [Compound 321] was at most 5 nM.

Consider `C[C@@H](C(=O)N1CCC[C@H]1c1nc2cc(C#Cc3ccc4[nH]c([C@@H]5CCCN5C(=O)[C@H](C)N5CCCC5=O)nc4c3)ccc2[nH]1)N1CCCC1=O` [Compound 79], for which the EC50 is at most 5 nM. As to `COC(=O)N[C@H](C(=O)N1C[C@@H](C)C[C@H]1c1nc2cc(-c3ccc(-c4ccc5[nH]c([C@@H]6C[C@H](C)CN6C(=O)[C@H](C(C)C)N6CCOC6=O)nc5c4)cc3)ccc2[nH]1)C(C)C` [Compound 305], the EC50 is at most 5 nM. For `COC(=O)N[C@H](C(=O)N1CCC[C@H]1c1nc2cc(C#Cc3ccc4nc([C@@H]5CCCN5C(=O)[C@H](O)C(C)C)[nH]c4c3)ccc2[nH]1)C(C)C` [Compound 78], the EC50 is at most 5 nM.

For the molecule `COC(=O)N[C@H](C(=O)N1CCC[C@H]1c1nc2cc(N3CCN(c4ccc5[nH]c([C@@H]6CCCN6C(=O)[C@@H](NC(=O)OC)C(C)C)nc5c4)[C@@H](C)C3)ccc2[nH]1)C(C)C` [Compound 329], the EC50 is at most 5 nM. For the molecule `COC(=O)N[C@H](C(=O)N1CCC[C@H]1c1nc2cc(-c3cnc(-c4ccc5[nH]c([C@@H]6CCCN6C(=O)[C@@H](NC(=O)OC)C(C)C)nc5c4)nc3)ccc2[nH]1)C(C)C` [Compound 15, ((S)-1-{(S)-2-[5-(5-{2-[(S)-1-((S)-2-Methoxycarbonylamino-3-methyl-butyryl)-pyrrolidin-2-yl]-1H-benzoimidazol-5-yl}-pyrimidin-2-yl)-1H-benzoimidazol-2-yl]-pyrrolidine-1-carbonyl}-2-methyl-propyl)-carbamic acid methyl ester], the EC50 is at most 5 nM. For the molecule `COC(=O)N[C@H](C(=O)N1CCC[C@H]1c1nc2cc(-c3c[nH]c(-c4ccc5nc([C@@H]6CCCN6C(=O)[C@@H](NC(=O)OC)C(C)C)[nH]c5c4)n3)ccc2[nH]1)C(C)C` [Compound 202], the EC50 lay within 5 to 5000 nM. Regarding `COC(=O)N[C@H](C(=O)N1C[C@@H](C)C[C@H]1c1nc2cc(C#CC#Cc3ccc4[nH]c([C@@H]5C[C@H](C)CN5C(=O)[C@@H](NC(=O)OC)C(C)C)nc4c3)ccc2[nH]1)C(C)C` [Compound 251], the EC50 was at most 5 nM. In the case of `COC(=O)N[C@H](C(=O)N1CC2CC2C1c1nc2cc(-c3ccc(-c4ccc5[nH]c(C6C7CC7CN6C(=O)[C@@H](NC(=O)OC)C(C)C)nc5c4)cc3)ccc2[nH]1)C(C)C` (some centres unmarked) [Compound 243], the EC50 is at most 5 nM.

Consider `COC(=O)N[C@H](C(=O)N1CCC[C@H]1c1nc2cc(C#Cc3ccc4[nH]c([C@@H]5CCCN5C(=O)[C@H]5CCCO5)nc4c3)ccc2[nH]1)C(C)C` [Compound 38, {(S)-2-Methyl-1-[(S)-2-(5-{2-[(S)-1-((R)-tetrahydro-furan-2-carbonyl)-pyrrolidin-2-yl]-1H-benzoimidazol-5-ylethynyl}-1H-benzoimidazol-2-yl)-pyrrolidine-1-carbonyl]-propyl}-carbamic acid methyl ester], for which the EC50 is at most 5 nM. For `CC(C)(C)OC(=O)N1CCCC[C@H]1c1nc2cc(C#Cc3ccc4[nH]c([C@@H]5CCCCN5C(=O)OC(C)(C)C)nc4c3)ccc2[nH]1` [Compound 92], the EC50 is at most 5 nM.

Regarding `COC(=O)N[C@H](C(=O)N1[C@@H]2C[C@@H]2C[C@H]1c1nc2cc(-c3ccc(-c4ccc5[nH]c([C@@H]6C[C@H]7C[C@H]7N6C(=O)[C@@H](NC(=O)OC)C(C)C)nc5c4)cc3)ccc2[nH]1)C(C)C` [Compound 240], the EC50 was at most 5 nM. As for `Cn1c([C@@H]2CCCN2C(=O)OC(C)(C)C)nc2cc(-c3ccc(-c4ccc5[nH]c([C@@H]6CCCN6C(=O)OC(C)(C)C)nc5c4)cc3)ccc21` [Compound 226], the EC50 was in the range of 5 to 5000 nM. Turning to `COC(=O)N[C@H](C(=O)N1CCC[C@H]1c1nc2ccc(-c3cc(OC)c(-c4ccc5nc([C@@H]6CCCN6C(=O)[C@@H](NC(=O)OC)C(C)C)[nH]c5c4)cc3OC)cc2[nH]1)C(C)C` [Compound 12], the EC50 is at most 5 nM. Regarding `COC(=O)N[C@H](C(=O)N1C[C@@H](C)C[C@H]1c1nc2cc(-c3ccc(-c4ccc5nc([C@@H]6C[C@@H](O)CN6C(=O)[C@H](NC(=O)OC)C(C)C)[nH]c5c4)cc3)ccc2[nH]1)C(C)C` [Compound 246], the EC50 was at most 5 nM. Turning to `COC(=O)N[C@H](C(=O)N1CCC[C@H]1c1nc2cc(-c3ccc(-c4ccc5nc([C@@H]6CCCN6C(=O)[C@@H](NC(=O)OC)C(C)C)[nH]c5c4)cc3C(=O)O)ccc2[nH]1)C(C)C` [Compound 198], the EC50 was at most 5 nM.

Source of the values: US8354419B2, “Benzimidazole analogues for the treatment or prevention of flavivirus infections” (Vertex Pharmaceuticals Incorporated, priority 2009, dated 2013).
